{
  "source": "patent US20100235931A1",
  "about": "“Novel Neurological Function of mPKCI” (priority 2006, published 2010)",
  "key": {"[1]": {"system": "PKCI/HINT1 WT and KO mice", "experiment": "Tail suspension test, effect of haloperidol", "assay_type": "in vivo", "from_the_text": "In order to confirm the results of the forced swim test while removing any bias introduced by the animal's swimming or learning capacity, we used the tail suspension test. This test assesses depression trait using coping behavior in a stressful situation (Cryan J F et al., 2005, Neruosc. Behav. Rev. 29, 571-625). The animals are exposed to a […] stress of being hung in an uncontrollable fashion by the tail for six minutes. Immobility, considered as a depression trait when the animal gives up any escape, is reported in seconds. Data are expressed as mean+/−SEM and analyzed using a 2 way ANOVA (age×genotype) followed by Bonferroni when p<0.05.\nHaloperidol 0.05 mg/kg and 0.1 mg/kg were administered via intra-peritoneal (10 ml/kg) 30 minutes before the test. Data are expressed as mean+/−SEM and analyzed using a 2 way ANOVA (treatment×genotype) followed by Bonferroni when p<0.05."}, "mice [2]": {"system": "mice", "details": "previously described; cited from earlier work"}, "[3]": {"system": "extracellular DA in nucleus accumbens and caudate-putamen of mPKCI WT and KO mice", "experiment": "In vivo microdialysis, amphetamine-evoked extracellular DA", "details": "2.5 mg/kg ip, conventional microdialysis, FIG. 4", "procedure": "PKCI^−/− mice and their WT controls were anesthetized and implanted unilaterally with a microdialysis guide cannula (CMA/11, CMA microdialysis) in the nucleus accumbens (AP: +1.5, L: −0.8, V: −3.8 from bregma) or the dorsal striatum (AP: +0.4, L−2.1, V−2.2 from bregma) using standard stereotaxic techniques, and allowed to recover for 5 days prior to the microdialysis experiment as described. […]\nFor no net flux experiments, five different concentrations of DA (0, 5, 10, 20 and 40 nM) in aCSF were perfused in random order through the dialysis probe. […] The DA content was determined by HPLC coupled to electrochemical detection with an external standard. All the samples were analyzed within 48 hours of collection. […] No net flux data was analyzed as described (Chefer et al 2006, supra). The net flux of DA through the probe (DAin-DAout) was calculated and plotted against the concentration of DA perfused (DAin). The following parameters were calculated from the resulting linear function. […] In the conventional microdialysis experiments investigating the effects of amphetamine, the average of the three baseline samples was calculated, and all the DA concentrations were expressed as % of baseline. […]"}, "mPKCI WT and KO mice": {"system": "mPKCI WT and KO mice", "experiment": "Locomotor activity measurement (open field, ambulation and stereotypy)", "assay_type": "in vivo", "procedure": "The generation of PKCI^−/− mice was described previously (Su et al, 2003, supra). PKCI^−/− mice and their wild type littermates were derived by breeding heterozygous […] mice for altered PKCI allele (Hint1) and genotype of the animals was confirmed by PCR of DNA from tail biopsies. Animals were housed 4-6/cage, maintained under standard laboratory condition with food and water provided ad libitum. The male animals were tested between 10-20 weeks of age. Wild type and PKCI^−/− groups were matched for age in all experiments. All studies were conducted with an approved protocol from University of Maryland, School of Pharmacy IACUC.\nMice locomotor activity was monitored during an open field test using “Activity Monitor” chambers (27×27×20.3 cm) associated with the Activity Monitor software (Med Associates Inc St Albans Vt.). Room temperature was set at 23° C.+/−2° C. Horizontal spontaneous locomotion activity, scored as ambulatory counts and stereotypic movements (Sanberg P. R. et al 1987, Pharmacol. Biochem. Behav. 27, 569-72), was recorded during the first 30 min of acclimatization to the novel environment and during 120 min following the treatment. The animals were acclimated to a 12 h cycle light/dark phase with the light on at 7:00 am before the experiments. Tests were performed during the light phase of the cycle between 8:00 am to 3:00 pm. AMPH or other drugs was prepared freshly before each experiment by dissolving in saline (NaCl 0.9%) and administered via intra peritoneal in a total volume of 10 ml/kg at the indicated doses."}, "PKCI KO mice": {"system": "PKCI KO mice", "experiment": "Conditional place preference test", "assay_type": "in vivo", "details": "preliminary data", "from_the_text": "Finally, we are looking at the involvement of PKCI in the rewarding function in PKCI KO mice. In this study, we are testing the response of the KO mice to the reward action of amphetamine and cocaine by using conditional place preference test."}, "mice [4]": {"system": "mice", "details": "10 mg/kg dose; cited from earlier work"}},
  "note": "“Also recorded” adds a separate entry of the source.",
  "data": [
    {"molecule": "O=C(CCCN1CCC(O)(c2ccc(Cl)cc2)CC1)c1ccc(F)cc1", "note": "[Haloperidol]", "values": [
      {"measurement": "immobility compared with saline treatment", "setting": "[1]; 0.05 mg/kg and 0.1 mg/kg i.p. 30 minutes before the test, WT and KO, FIG. 8", "value": "increased immobility in both WT and KO animals"},
      {"measurement": "increase in immobility in KO mice relative to WT level", "setting": "[1]; 0.1 mg/kg, 3 months and 15 months old", "value": "reaching the level attained by WT animals"},
      {"measurement": "mice immobility in the tail suspension test", "setting": "mice [2]", "value": "increase mice immobility"}
    ]},
    {"molecule": "C[C@H](N)Cc1ccccc1", "note": "[amphetamine, D-amphetamine]", "values": [
      {"measurement": "amphetamine-evoked DA response, WT vs KO", "setting": "[3]", "value": "No significant difference between WT and KO mice; also recorded: did not differ in WT and KO animals"},
      {"measurement": "effect on locomotion", "setting": "mPKCI WT and KO mice; AMPH 2.5 mg/kg i.p., 120 min after treatment, WT and KO mice, FIG. 2", "value": "increased locomotion in both WT and KO animals"},
      {"measurement": "amphetamine-evoked locomotor response, PKCI KO compared with WT", "setting": "mPKCI WT and KO mice; AMPH 2.5 mg/kg i.p., KO vs WT", "value": "three times more"},
      {"measurement": "increase in amphetamine-evoked activity in mPKCI KO mice, dose response", "setting": "mPKCI WT and KO mice; D-AMPH 1.25, 2.5 and 5 mg/kg i.p., FIG. 3", "value": "consistent across a range of amphetamine doses"},
      {"measurement": "response of KO mice to reward action", "setting": "PKCI KO mice", "value": "higher response"}
    ]},
    {"molecule": "CN1CCc2cccc3c2[C@H]1Cc1ccc(O)c(O)c1-3", "note": "[apomorphine]", "values": [
      {"measurement": "locomotor activity (total ambulation and stereotyped behavior), KO compared with WT", "setting": "mPKCI WT and KO mice; apomorphine 10 mg/kg i.p., FIG. 5", "value": "significantly higher locomotor activity as compared with WT"}
    ]},
    {"molecule": "CN1CC[C@]23c4c5ccc(O)c4O[C@H]2[C@@H](O)C=C[C@H]3[C@H]1C5", "note": "[morphine]", "values": [
      {"measurement": "effect on locomotor activity", "setting": "mPKCI WT and KO mice; morphine 10 mg/kg i.p., 120 min after treatment, WT and KO mice, FIG. 2", "value": "did not promote increase in locomotor activity; also recorded: depressive locomotor effect on both wild type and knockout mice"},
      {"measurement": "locomotion", "setting": "mice [4]", "value": "a decrease in locomotion was often observed"}
    ]}
  ]
}
